Data reported in US11014947B2, “Lipophenol compounds and uses thereof” (INSTITUT NATIONAL DE LA SANTE ET DE LA RECHERCHE MEDICALE …, priority 2014, dated 2021).
Read-outs that look alike come from different tables or passages of the source.

What was measured:
[1] = test system: ARPE-19 cell lines; conditions: for % Survival: untreated cells = 100; for cell survival: text summary of Table 1, AtR 25 μM
Experimental: The biological assay is based on the measure of cell survival after treatment with the lipophenol prior incubation (pre-incubation process) with the carbonyl stressor AtR. The toxic AtR concentration (25 μM) was determined to reduce cell survival by 60 to 70%. Results are expressed as % of cell survival in treated (lipophenol/all-trans-retinal) vs untreated cells (taken as 100%).
ARPE-19 cells were settled in 96-well plates (3×10^4 cells/well) and cultured 24 h to reach confluence before drug treatment. Cell cultures received a serum-free medium containing drugs at different concentrations (10-40 μM) for one hour and trans-retinal (25 μM) was added for 4 more hours before rinsing with medium. The viability of cells in triplicate samples was determined 16-20 h after with a MTT colorimetric assay. After 2 h incubation with 0.5 mg/ml MU, insoluble purple formazan produced was dissolved in DMSO. The absorbance at 570 nm and 655 nm of individual wells was measured by a microplate reader (BioRad 550).

[2] = test system: ARPE-19; assay: atRAL-induced cell death, Annexin V-FITC / propidium iodide flow cytometry; format: cell-based; conditions: 4 h
Experimental: Further investigations were made to define the atRAL-induced cell death (apoptotic versus necrotic) and validate the protective effect of PG-OiP-DHA (FIG. 6). Cells were incubated for 4 h with atRAL 25 μM, PG-OiP-DHA (compound 13b) 40 μM, or both. Treated ARPE-19 were labeled with Annexin V-FITC (A) and propidium iodide (PI) to separate by flow cytometry healthy cells (no labeling), early apoptosis (A+ and PI−) and necrotic cells (A+ and PI+). In CTL or PG-OiP-DHA-treated cells only 6 to 10% died. After 4 h atRAL, cell death reached 46%, mainly at necrotic stage (41%).

[3] = test system: complexes CI and CII; assay: Mitochondrial respiration in ARPE-19 cell line (oxygraph); format: cell-based
Description: Oxidative stress originates from physiological reactions taking place practically inside each cell of an organism. The production of reactive oxygen species (ROS) accompanies, for example, oxidative phosphorylation-derived ATP-based energy metabolism which takes place in the mitochondria of a cell. Under physiological conditions, ROS are neutralized by effective enzymatic and non-enzymatic defense mechanisms, contributing to the maintenance of a proper balance. However, an excess of ROS, resulting from their overproduction in pathophysiological conditions, will disturb the equilibrium and lead eventually to deleterious consequences for the cell. Maeda et al. (JBC 284(22), 2009) have reported that atRal impairs mitochondrial oxidative phosphorylation. Therefore, mitochondrial respiration was measured in ARPE-19 cell line using oxygraph after exposure to 25 μM atRal and/or 40 μM 13b (FIG. 3).

[4] = test system: ARPE-19 cell lines; assay: ARPE-19 cell survival, co-treatment with atRAL 25 μM; format: cell-based
Experimental: Co-treatment were performed with lipophenols onto ARPE-19 (FIG. 4). Incubation for 4 h with atRAL decreased cell viability to 35%. The protection of ARPE-19 by phloroglucinol (PG) was dose-dependent but weak (less than 10%). In contrast, most of the PG derivatives were more protective, in particular the presence of two or three DHA linked to PG provided a strong protection (up to 73% survival), as well as the mono-alkylation (methyl and isopropyl) were sufficient to protect 60% of cells. PG-OiP-DHA was confirmed to be among the most efficient (74%).

[5] = test system: RPE primary cells; assay: Primary RPE cultures, pre-treatment 24 h, H2O2 450 μM 2 h, cell viability assay; format: cell-based; conditions: H2O2 450 μM 2 h (FIG. 7)
Experimental: a. Pre-treatment 24 h, H2O2 450 μM 2 h; cell viability assay

[6] = test system: mitochondrial respiratory chain (MRC) complex; assay: Mitochondrial respiratory chain complex enzymatic activities and protein expression; format: cell-based; conditions: atRAL treatment with PG-OiP-DHA (FIG. 5, FIG. 14)
Description: In a cellular context, PG-OiP-DHA (compound 13b) has been shown able to partially restore mitochondrial oxidative respiration impaired by the atRAL (example 10). Because this repair might be produced by targeting the whole oxidative chain or each individual respiratory complex, this potency was further investigated by measuring the intrinsic activity of each mitochondrial respiratory chain (MRC) complex (enzymology) and their level of protein expression (FIG. 5). […] This was supported by the loss of MRC protein expression.
Several experiments were made to validate the efficacy of PG-OiP-DHA in the protection of the mitochondrial activity (FIG. 14).

[7] = test system: RPE primary cells; assay: Primary RPE cultures, co-incubation 4 h with atRAL 25 μM, cell viability assay; format: cell-based; conditions: co-incubation 4 h with atRAL 25 μM (FIG. 9)
Experimental: c. Co-incubation 4 h with atRAL 25 μM; cell viability assay
To compare the anti-carbonyl efficacies of phloroglucinol (22% gain of survival) and PG-OiP-DHA (69%) in a condition to probe their scavenging properties in primary RPE cells (FIG. 9).

[8] = test system: neural retina cell cultures; assay: Cytoprotection in neural retina cell cultures exposed to atRal (MTT); format: cell-based; conditions: 13b 10 to 100 μM, atRal 50-75-100 μM added 1 h after, 4 h co-incubation
Experimental: The effect of compound 13b on cell viability was examined after co-incubation with atRal. Cell cultures were incubated with 13b (10 to 100 μM) and atRal (50-75-100 μM) was added 1 h after for a 4 h co-incubation. Cells were then cultured in serum-free medium for 16-20 h and their viability was determined with a MTT assay.

[9] = test system: RPE primary cells; assay: Primary RPE cultures, pre-treatment 24 h, atRAL 25 μM 4 h, cell viability assay; format: cell-based; conditions: atRAL 25 μM 4 h (FIG. 8)
Experimental: b. Pre-treatment 24 h, atRAL 25 μM 4 h; cell viability assay

[10] = compound 10 μM 1 h, then AtR 25 μM 4 h, MTT after 16-20 h
[11] = compound 40 μM 1 h, then AtR 25 μM 4 h, MTT after 16-20 h
[12] = co-incubation atRAL 25 μM + PG-OiP-DHA 40 μM

CC1=C(/C=C/C(C)=C/C=C/C(C)=C/C=O)C(C)(C)CCC1 [AtR, all-trans-retinal, reference compound]
% Survival ([1]; AtR 25 μM alone): 29.1 ± 5.4% | cell death ([2]; atRAL 25 μM alone): 46% | necrotic stage cells ([2]; atRAL 25 μM alone): 41% | inhibition of the activity of complexes CI and CII ([3]; 25 μM atRal alone): strongly inhibits | cell viability ([4]; atRAL 25 μM alone, 4 h): 35%

CC/C=C\C/C=C\C/C=C\C/C=C\C/C=C\C/C=C\CCC(=O)Oc1cc(OC(=O)CC/C=C\C/C=C\C/C=C\C/C=C\C/C=C\C/C=C\CC)cc(OC(=O)CC/C=C\C/C=C\C/C=C\C/C=C\C/C=C\C/C=C\CC)c1 [Compound 8, (4,4′,4″,7,7′,7″,10,10′,10″,13,13′,13″,16,16′,16″,19,19′,19″Z)-benzene-1,3,5-triyl tridocosa-4,7,10,13,16,19-hexaenoate]
% Survival [1, 10]: 33.3 ± 4.1% | % Survival [1, 11]: 47.7 ± 3.2% | cell survival [1]: 50%

CC(C)Oc1cc(O)cc(O)c1 [Compound 9b, 5-isopropoxybenzene-1,3-diol, reference compound]
% Survival [1, 10]: 30.6 ± 1.2% | % Survival [1, 11]: 32.7 ± 1.8%

CC/C=C\C/C=C\C/C=C\C/C=C\C/C=C\C/C=C\CCC(=O)Oc1cc(O)cc(OC)c1 [Compound 13a, (4,7,10,13,16,19 Z)-3-hydroxy-5-methoxyphenyl docosa-4,7,10,13,16, 19-hexaenoate]
% Survival [1, 10]: 32.6 ± 3.7% | % Survival [1, 11]: 44.9 ± 1.9% | cell survival [1]: as active as 8

CC/C=C\C/C=C\C/C=C\C/C=C\C/C=C\C/C=C\CCC(=O)Oc1cc(O)cc(OC(C)C)c1 [Compound 13b, (4,7,10,13,16,19 Z)-3-hydroxy-5-isopropoxyphenyl docosa-4,7,10,13,16,19-hexaenoate]
% Survival [1, 10]: 43.2 ± 7.5% | % Survival [1, 11]: 66.8 ± 8.6% | gain of survival (anti-oxidant efficacy) [5]: 20% | preservation of complex II and IV enzymatic activities affected by atRAL [6]: significantly preserved | necrotic cells [2, 12]: 16% | total cell death [2, 12]: 18% | gain of survival (anti-carbonyl efficacy, scavenging) [7]: 69% | reversal of atRal cytotoxicity [8]: robustly reversed | gain of survival (anti-carbonyl efficacy) [9]: 42% | reversal of atRal inhibition of complexes CI and CII ([3]; 40 μM 13b with 25 μM atRal): partially reverse this inhibition | inhibition of the activity of each complex by the compound alone ([3]; 40 μM 13b, no atRal): no significant inhibition | survival ([4]; co-treatment with atRAL 25 μM 4 h, doses 5-80 μM (FIG. 4)): 74%

CC/C=C\C/C=C\C/C=C\C/C=C\C/C=C\C/C=C\CCC(=O)Oc1ccc(/C=C/c2cc(O)cc(O)c2)cc1 [Compound 20, (4,7,10,13,16,19 Z)-4-((E)-3,5-dihydroxyphenylstyryl)phenyl docosa-4,7,10,13,16,19-hexaenoate]
protective effect ([4]; co-treatment with atRAL 25 μM 4 h (FIG. 4)): very potent

CC/C=C\C/C=C\C/C=C\C/C=C\C/C=C\C/C=C\CCC(=O)O [DHA, docosahexaenoic acid, reference compound]
% Survival [1, 10]: 23.5 ± 2.7% | % Survival [1, 11]: 7.3 ± 5.0%

Oc1cc(O)cc(O)c1 [Phloroglucinol, phloroglucinol, reference compound]
increase of RPE cell survival ([1]; 40 μM, AtR 25 μM): 10% | % Survival [1, 10]: 35.5 ± 3.3% | % Survival [1, 11]: 41.6 ± 9.2% | gain of survival (anti-oxidant efficacy) [5]: 10% | gain of survival (anti-carbonyl efficacy, scavenging) [7]: 22% | gain of survival (anti-carbonyl efficacy) [9]: 18% | protection of ARPE-19 ([4]; co-treatment with atRAL 25 μM, doses 5-80 μM): less than 10%
